Patent publication US6906078B2, “Method of using (H+/K+) ATPase inhibitors as antiviral agents” (Pharmacia Corporation, priority 1994, dated 2005)
Where two headings read alike, the source gives them in different places.

Experiments:
(H+/K+)-ATPase = target: T1, (H+/K+)-ATPase (Canis lupus familiaris, UniProt P50996); assay: Inhibition of (H+/K+)-ATPase from canine gastric mucosa (inorganic phosphate release); format: biochemical; details: canine gastric mucosa microsomes, pH 6.0, 30 min preincubation at 37° C.; read-out: (H+/K+)-ATPase IC50
T1 construct: The microsomes retained at the 15%-30% sucrose interface, after centrifugation at 250,000×g for sixty minutes, were used as the source of (H^+/K^+)-ATPase; from tissue; host or cells: gastric glandular mucosa of mongrel dogs (microsomal fraction, lyophilized)
T1 sequence (P50996 whole entry): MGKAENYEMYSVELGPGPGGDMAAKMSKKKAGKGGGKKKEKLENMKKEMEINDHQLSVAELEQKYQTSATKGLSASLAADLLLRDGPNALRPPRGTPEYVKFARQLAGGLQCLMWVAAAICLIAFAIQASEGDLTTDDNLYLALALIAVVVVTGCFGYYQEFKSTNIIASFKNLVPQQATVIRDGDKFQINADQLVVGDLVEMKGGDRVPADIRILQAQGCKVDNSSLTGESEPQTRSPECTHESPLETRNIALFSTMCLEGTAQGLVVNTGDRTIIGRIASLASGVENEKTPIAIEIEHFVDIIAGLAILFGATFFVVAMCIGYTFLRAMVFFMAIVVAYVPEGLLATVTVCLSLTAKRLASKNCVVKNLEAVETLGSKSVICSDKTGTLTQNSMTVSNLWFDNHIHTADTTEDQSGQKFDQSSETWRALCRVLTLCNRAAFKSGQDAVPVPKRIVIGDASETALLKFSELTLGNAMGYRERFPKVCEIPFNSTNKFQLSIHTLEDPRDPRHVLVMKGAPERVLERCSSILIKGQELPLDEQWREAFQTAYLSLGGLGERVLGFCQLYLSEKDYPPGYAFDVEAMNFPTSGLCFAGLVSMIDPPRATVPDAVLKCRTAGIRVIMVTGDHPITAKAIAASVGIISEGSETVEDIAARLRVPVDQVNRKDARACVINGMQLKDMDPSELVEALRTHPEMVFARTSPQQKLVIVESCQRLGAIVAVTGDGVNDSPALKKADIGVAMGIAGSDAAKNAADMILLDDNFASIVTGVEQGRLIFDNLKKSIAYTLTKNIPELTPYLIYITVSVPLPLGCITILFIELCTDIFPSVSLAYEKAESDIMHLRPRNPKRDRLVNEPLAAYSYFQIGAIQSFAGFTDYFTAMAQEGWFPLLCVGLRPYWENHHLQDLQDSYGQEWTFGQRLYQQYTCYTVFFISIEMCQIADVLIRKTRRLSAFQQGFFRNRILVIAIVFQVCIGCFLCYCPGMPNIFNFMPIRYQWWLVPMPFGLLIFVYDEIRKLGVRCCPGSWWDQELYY
T1 sequence (P33704 whole entry partner): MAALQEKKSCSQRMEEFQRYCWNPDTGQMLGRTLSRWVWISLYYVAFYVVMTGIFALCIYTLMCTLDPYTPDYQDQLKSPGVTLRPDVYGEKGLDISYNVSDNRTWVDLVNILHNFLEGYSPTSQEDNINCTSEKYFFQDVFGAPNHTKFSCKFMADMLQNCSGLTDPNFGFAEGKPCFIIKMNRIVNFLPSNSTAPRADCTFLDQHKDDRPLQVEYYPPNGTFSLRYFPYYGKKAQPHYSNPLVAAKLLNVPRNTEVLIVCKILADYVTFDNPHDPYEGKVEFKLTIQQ
Summary of the method: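 Lyophilised gastric microsomes (sucrose-gradient 15%/30% interface fraction from dog mucosa, ~25 mcg protein) preincubated with compound 30 min at 37° C in 20 mM MES-Tris pH 6.0, 5 mM MgCl2, 25 mM sucrose, then 30 min more after 4 mM Tris-ATP. Released phosphate read by molybdate/ascorbate at 870 nm; activity = K+-stimulated (20 mM KCl) minus basal.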

gastric acid secretion [1] = assay: Inhibition of gastric acid secretion in gastric fistula beagle dogs (histamine-stimulated); format: in vivo; details: Canis lupus familiaris, 4 h, histamine-stimulated, four-hour period, read-out: Gastric-Fistula Beagle % Inhibition (3 mg/kg dose)
Excerpt: Adult female beagle dogs weighing 6 to 11 kilograms obtained from Laboratory Research Enterprises (Kalamazoo, Mich.) or from Hazelton Research Animals (Cumberland, Va.) were surgically implanted with a simple Thomas-type gastric cannula. After recovery from surgery, the dogs were trained to stand quietly, fully conscious, in Pavlov-type dog restraining slings and were acclimated to intravenous infusion of histamine dihydrochloride. During the course of these studies, no dog was used more than once a week. All dogs were deprived of food, but not water, for 18 hours prior to each assay. Each dog was initially infused with 0.15 M sodium chloride solution at a constant rate of […]. The volume of gastric secretions, collected in plastic bottles affixed to the cannula, were measured to the nearest 0.1 ml at 30 minute intervals. One of the following protocols was followed, depending on the route chosen for administration of test compound.
Intravenous dosing: Following a 30-minute basal secretion period, test compounds were administered intravenously (i.v.). At the end of an additional 30 minute period, the saline infusion was replaced with histamine dihydrochloride in saline administered at a rate 15 mcg per kilogram of body weight per hour. Histamine stimulation was maintained for a maximum of four hours during which time gastric secretions were collected every 30 minutes. The pH and titratable acidity were determined for samples from each collection period.
Intragastric dosing: Following a 30-minute basal secretion period, he collection bottles were removed, dosing plugs here inserted, and test compounds were administered intragastrically (i.g.) At the end of a 30-minute drug absorption period, the stomachs were emptied, the collection bottles were reattached, and collections were resumed at 30-minute intervals. Simultaneously, the saline infusion was replaced with a continuous intravenous infusion of histamine dihydrochloride in saline administered for four hours at a rate 15 mcg per kilogram of body weight per hour.
Intraduodenal dosing: Dogs were also equipped with duodenal cannulas for intraduodenal (i.d.) administration of test compounds. Dosing was otherwise performed as described for intragastric dosing.
Data from each protocol were analyzed for three gastric sample variables: volume of gastric juice, acid concentration, and total acid output. Percent inhibition for each four-hour experimental period was determined for each parameter by comparison with 3 to 4 controls in which […]. Estimates of ED50's were determined from dose response curves.

gastric acid secretion [2] = assay: Inhibition of gastric acid secretion in meal-stimulated Pavlov pouch dog; format: in vivo, beagle dogs; details: 3 mg/kg, four-hour period
Experimental: Adult female beagle dogs weighing 6 to 10 kilograms were obtained from Laboratory Research Enterprises (Kalamazoo, Mich.) or from Hazelton Research Animals (Cumberland, Va.). Surgical implantation of a Thomas-type gastric cannula into an innervated Pavlov pouch of each dog was performed by the method reported by L. Burrows et al., J. Surgical Res., 4, 147 (1964). After recovery from surgery, the dogs were trained to stand quietly, fully conscious, in Pavlov-type dog restraining slings. All dogs were deprived of food, but not water, for 24 hours prior to each assay. Basal acid secretion was measured by collecting from the cannulas for 30 minutes before dosing with a test compound. Solutions of the test compounds in iso-osmotic phosphate buffer (pH 7.4) were given either intravenously or directly into the Pavlov pouch. After 30 minutes the pouch was drained. The dogs were then fed 320 grams of dog food and gastric acid secretions were collected each half hour for four hours. Controls were determined in the same way except that only food (i.e., no test compound) was administered.
Data were analyzed for three different variables: volume of gastric juice, acid concentration, and total acid output. Percent inhibition for the four-hour experimental period was determined for each parameter by comparison with 3 to 4 controls. Estimates of ED50 were determined from dose response curves.

Row | IC50 ((H+/K+)-ATPase) | melting point | SMILES | inhibition in vivo at 3 mg/kg (gastric acid secretion [1]; intraduodenal, 3 mg/kg i.d.) | inhibition in vivo at 3 mg/kg (gastric acid secretion [1]; iv, 3 mg/kg i.v.) | inhibition in vivo at 3 mg/kg (gastric acid secretion [1]; po, 3 mg/kg i.g.) | Pavlov-Pouch Dog % Inhibition (dose (mg/kg)) (gastric acid secretion [2])
1 | 4.2 µM | 148 to 149 °C | COc1ccc2[nH]c([S+]([O-])Cc3cc(C)ccc3N)nc2c1 (stereo not shown) [Example 34, 2-[[(5-Methoxy-1H-benzimidazol-2-yl)sulfinyl]methyl]-4-methylbenzenamine] | 66% | 91% | 43% | 79 (3 mg/kg) %
2 | 0.7 µM | 107 to 109 °C | CN(C)c1ccccc1C[S+]([O-])c1nc2ccccc2[nH]1 (stereo not shown) [Example 4, 2-[(1H-Benzimidazol-2-ylsulfinyl)methyl]N,N-dimethylbenzenamine] | – | 14% | – | 3 (3 mg/kg) %
